# Values joined by “and” are separate entries in the source; they are usually repeats but may differ in a detail not shown here. Equal entries are not always repeated.
# System: WM3248 melanoma cells, 486 antibodies
# Assay: Reverse phase protein arrays (RPPA)
# Assay type: cell-based, Human
# Conditions: 10 uM, single replicates
# Description: Pellets were snap frozen in liquid nitrogen and shipped to MD Anderson Cancer Center core RPPA facility for RPPA analysis (Table S5). Three biological replicates for each sample were generated.
# Nomenclatures on the RPPA heatmaps: name_of_antibody.species_of_antibody.status_of_antibody. V - antibody validated; C - validation of antibody in progress; Q - antibody nonspecific; E – under evaluation; antibodies raised in M - mouse, G - goat, R - rabbit, or T - rat.
smiles,measurement,value
"CN(C)c1cccc(Nc2cc(-c3ccccc3)nc(C3CCNCC3)n2)c1 [ARN22089, N1,N1-dimethyl-N3-(6-phenyl-2-(piperidin-4-yl)pyrimidin-4-yl)benzene-1,3-diamine]",RPPA PDHA1.R.V,0.868 and 1.050
same,RPPA PDHK1.R.C,0.847 and 0.989 and 1.019
same,RPPA PDK1.R.V,1.007 and 1.121 and 1.006
same,RPPA PDK1_pS241.R.V,0.935 and 0.909 and 0.981
same,RPPA PEA.15.R.V,0.898 and 0.934 (2×)
same,RPPA PEA.15_pS116.R.V,0.987
same,RPPA PERK.R.V,0.972 and 0.874
same,RPPA PGM1.R.V,1.007 and 0.983 and 1.004
same,RPPA PHGDH.R.C,0.889 and 1.016
same,RPPA PHLPP.R.V,1.515 and 0.856 and 0.877
same,RPPA PI3K.p85.R.C,1.113 and 1.033
same,RPPA PI3K.p110.a.R.C,0.828 and 0.921 and 0.963
same,RPPA PI3K.p110.b.M.C,0.981 and 0.937
same,RPPA PKA.a.R.V,1.016 and 0.756 and 0.860
same,RPPA PKC.a.b.II_pT638_T641.R.V,0.761 and 0.940 and 1.029
same,RPPA PKC.b.II_pS660.R.V,0.960 and 1.055
same,RPPA PKCa.R.V,1.576 and 0.715 and 0.684
same,RPPA PKM2.R.C,0.940 and 0.831 and 1.047
same,RPPA PLC.gamma1.R.V,1.302 and 0.921 and 1.027
same,RPPA PLC.gamma1_pS1248.R.V,1.246 and 0.852 and 0.899
same,RPPA PLC.gamma2_pY759.R.V,1.055 and 1.008 and 1.052
same,RPPA PLK1.R.C,1.052 and 0.570
same,RPPA PMS2.R.V,1.013 and 1.061 and 1.035
same,RPPA PR.R.V,1.051 and 1.057 and 1.083
same,RPPA PRAS40.M.C,1.053 and 1.125 and 0.970
same,RPPA PRAS40_pT246.R.V,0.997 and 0.945 and 0.929
same,RPPA PRC1_pT481.R.C,1.013
same,RPPA PREX1.R.V,0.847 and 0.880 and 1.018
same,RPPA PTEN.R.V,0.967 and 0.919
same,RPPA PTPN12.R.V,0.922 and 0.923
same,RPPA PYGB.R.V,1.000 and 1.018
same,RPPA PYGM.M.C,0.933 and 0.899 and 1.244
same,RPPA Patched.R.C,0.891 and 1.022 and 1.001
same,RPPA Paxillin.R.C,0.651 and 0.874 and 0.967
same,RPPA Pdcd4.R.C,1.032 and 0.964 and 0.935
same,RPPA Porin.M.V,0.986 and 1.054 and 1.019
same,RPPA Puma.R.C,1.032 and 0.898 and 0.973
same,RPPA Pyk2_pY402.R.C,0.958 and 0.968 and 0.955
same,RPPA RBM15.R.V,0.860 and 0.890 and 0.867
same,RPPA RIP3.R.C,0.858 and 0.945
same,RPPA RIP.R.C,0.855 and 1.003
same,RPPA RPA32.R.V,1.116 and 1.009 and 0.985
same,RPPA RPA32_pS4_S8.R.C,1.499 and 0.874 and 0.876
same,RPPA RRM1.R.C,0.796
same,RPPA RRM2.R.C,0.716 and 0.950 and 1.085
same,RPPA RSK1.R.V,1.235 and 0.841
same,RPPA RSK.R.C,1.016 and 0.831 and 0.880
same,RPPA Rab11.R.C,0.965 and 1.012 and 0.993
same,RPPA Rab25.R.V,0.970 and 0.991 and 0.975
same,RPPA Rad17_pS645.R.V,1.158
same,RPPA Rad23A.R.C,0.785 and 0.923 and 1.052
same,RPPA Rad50.R.V,1.047 and 1.001 and 0.925
same,RPPA Rad51.R.C,1.141
same,RPPA Raptor.R.V,0.898 and 0.967 and 0.952
same,RPPA Rb.M.Q,1.031
same,RPPA Rb_pS807_S811.R.V,0.993 and 0.916 and 0.946
same,RPPA Rheb.M.C,1.005
same,RPPA Rictor.R.C,0.984 and 0.977 and 0.904
same,RPPA Rictor_pT1135.R.V,1.006 and 1.049 and 1.026
same,RPPA S6.M.V,1.029 and 0.890 and 0.873
same,RPPA S6_pS235_S236.R.V,0.665 and 0.702 and 0.771
same,RPPA S6_pS240_S244.R.V,1.130 and 0.761 and 0.978
same,RPPA SCD.M.V,0.998 and 1.016
same,RPPA SDHA.R.V,0.885 and 1.085 and 0.936
same,RPPA SF2.R.V,0.975 and 1.048 and 0.992
same,RPPA SFRP1.R.V,0.871 and 0.955
same,RPPA SGK1.R.V,1.123 and 0.868
same,RPPA SGK3.R.V,0.999 and 1.114 and 0.994
same,RPPA SHP2.R.V,1.022 and 1.001 and 0.989
same,RPPA SHP.2_pY542.R.C,0.948 and 0.890 and 0.849
same,RPPA SIRPαR.V,1.018 and 0.987 and 1.021
same,RPPA SLC1A5.R.C,0.918 and 0.893 and 1.114
same,RPPA SOD1.M.V,1.011 and 1.084 and 0.999
same,RPPA SOD2.R.V,1.111 and 1.200 and 1.033
same,RPPA SOX7.R.V,1.014 and 0.995
same,RPPA STING.R.V,0.837 and 0.985 and 0.890
same,RPPA Shc_pY317.R.C,0.828 and 3.472 and 1.241
same,RPPA Slfn11.G.C,0.855 and 0.895
same,RPPA Smac.M.Q,0.941 and 1.118 and 0.934
same,RPPA Smad1.R.V,0.926 and 1.050
same,RPPA Smad3.R.V,0.971 and 0.982 (2×)
same,RPPA Smad4.R.V,1.125 and 1.111 and 0.988
same,RPPA Snail.M.Q,0.848 and 1.076 and 1.006
same,RPPA Sox2.R.V,0.994 and 0.995 and 0.973
same,RPPA Sox17.R.V,1.081 and 0.902
same,RPPA Src.M.V,0.986 and 1.228 and 1.023
same,RPPA Src_pY416.R.V,1.112 and 0.914
same,RPPA Src_pY527.R.V,1.187 and 0.891 and 0.646
same,RPPA Stat1_pY701.R.V,1.116 and 1.000 and 0.989
same,RPPA Stat3.R.C,0.928 and 0.967 and 1.021
same,RPPA Stat3_pY705.R.C,1.145 and 0.998 and 0.863
same,RPPA Stat5a.R.V,1.136 and 0.906 and 0.832
same,RPPA Stathmin.1.R.V,0.796 and 1.056 and 1.053
same,RPPA Syk.M.V,0.989 and 1.109 and 1.102
same,RPPA Synaptophysin.R.C,1.199 and 0.991
same,RPPA TAZ.R.V,0.707 and 1.122 and 1.046
same,RPPA TEAD.R.C,0.724 and 1.098 and 1.080
same,RPPA TFAM.R.V,0.916 and 0.953 and 0.872
same,RPPA TFRC.R.V,0.933 and 0.837 and 1.007
same,RPPA TIGAR.R.V,1.010 and 0.954 and 0.970
same,RPPA TRAP1.M.V,0.985
same,RPPA TRIM24.R.C,1.099 and 1.139 and 0.970
same,RPPA TRIM25.R.C,0.787 and 0.889 and 0.933
same,RPPA TRIP13.R.V,1.107 and 0.967 and 1.005
same,RPPA Tau.M.C,1.121 and 1.140
same,RPPA Transglutaminase.M.V,0.953 and 1.132 and 1.561
same,RPPA level HLA.DQA1.R.V,0.942 and 1.249 and 0.908
same,RPPA level HLA.DR.DP.DQ.DX.R.C,0.965 and 0.939
same,RPPA level HMHA1.R.V,0.904 and 1.030 and 0.992
same,RPPA level HNRNPK.R.V,1.000 and 1.157 and 1.048
same,RPPA level HSP27.M.C,1.035 and 0.965
same,RPPA level HSP27_pS82.R.V,0.973 and 1.006 and 0.985
same,RPPA level HSP60.R.V,0.817 and 0.961
same,RPPA level HSP70.R.C,0.863 and 0.990 and 0.973
same,RPPA level Hexokinase.I.R.C,1.158 and 0.954
same,RPPA level Hexokinase.II.R.V,1.125 and 0.921 and 0.919
same,RPPA level Hif.1αR.C,1.247 and 1.014 and 0.671
same,RPPA level Histone.H3.R.V,0.930 and 0.956 and 0.776
same,RPPA level Histone.H3_pS10.R.V,1.200 and 0.894 and 1.027
same,RPPA level IDO.R.C,0.882 and 1.060
same,RPPA level IGF1R_pY1135_Y1136.R.V,0.904 and 0.968 and 0.956
same,RPPA level IGFBP2.R.V,0.540 and 0.765
same,RPPA level IGFBP3.M.V,0.727 and 1.079 and 1.122
same,RPPA level IGFRb.R.C,0.931 and 1.005 and 0.850
same,RPPA level IL.6.R.C,0.856 and 0.994 and 1.019
same,RPPA level IMP3.R.C,1.033 and 1.014 and 0.956
same,RPPA level INPP4b.R.C,0.980 and 0.827
same,RPPA level IR.b.R.C,0.942 and 1.158 and 1.047
same,RPPA level IRF.1.R.V,0.733 and 0.989 and 0.863
same,RPPA level IRF.3.R.V,1.005 and 1.049 and 1.057
same,RPPA level IRS1.R.V,0.956 and 0.975 and 0.990
same,RPPA level IRS2.R.C,1.250 and 0.922 and 0.822
same,RPPA level JAB1.M.C,0.937 and 1.033
same,RPPA level JNK2.R.V,0.765 and 3.367 and 1.426
same,RPPA level JNK_pT183_Y185.R.C,0.982 and 0.932 and 1.030
same,RPPA level Jagged1.R.V,0.877 and 1.048
same,RPPA level Jak2.R.V,0.931 (2×) and 1.019
same,RPPA level KAP1.R.V,1.035 and 0.844 and 0.861
same,RPPA level KEAP1.R.V,1.174 and 0.839
same,RPPA level LAD1.R.V,0.772 and 1.056 and 1.078
same,RPPA level LC3A.B.R.C,1.052 and 0.957 and 0.853
same,RPPA level LCN2.R.V,2.061 and 0.840 and 0.854
same,RPPA level LDHA.R.C,0.770 and 1.150
same,RPPA level LRP6_pS1490.R.V,0.906 and 0.988 and 0.894
same,RPPA level Lasu1.R.V,1.033 and 1.132 and 1.052
same,RPPA level Lck.R.V,0.988 and 0.991 and 0.942
same,RPPA level Lyn.R.V,1.113 and 1.221 and 0.942
same,RPPA level MACC1.R.V,1.081 and 1.061 and 1.005
same,RPPA level MAPK_pT202_Y204.R.C,0.770 and 0.851 and 1.246
same,RPPA level MCT4.R.V,0.673 and 0.768 and 1.020
same,RPPA level MDM2_pS166.R.V,1.142 and 0.902
same,RPPA level MEK1.R.V,2.774 and 0.771 and 0.759
same,RPPA level MEK1_pS217_S221.R.V,1.065 and 0.907 and 1.005
same,RPPA level MEK2.R.V,0.928 and 1.010 and 0.996
same,RPPA level MERIT40.R.C,0.985
same,RPPA level MERIT40_pS29.R.V,0.918 and 1.049
same,RPPA level METTL3.R.V,1.128 and 1.097 and 0.930
same,RPPA level MIF.R.C,1.023 and 1.117 and 1.048
same,RPPA level MIG6.R.V,0.921 and 1.139 and 1.007
same,RPPA level MITF.R.V,1.105 and 1.065 and 0.952
same,RPPA level MLH1.M.V,1.000 and 0.967
same,RPPA level MLKL.R.V,0.819 and 0.881 and 1.048
same,RPPA level MMP2.R.V,1.026 and 0.968 and 0.958
